Data on seven substances can be found in patent US20220280594A1, “APPLICATION OF POLYPEPTIDE OR DERIVATIVE THEREOF” (CHENGDU HUITAI BIOMEDICINE CO., LTD., priority 2019, published 2022).

In assay [1] the test system is human breast cancer cells (MDA-MB-231). In words: scratch assay, migration of MDA-MB-231 cells. The format is cell-based. The conditions noted are these: MDA-MB-231, 10 μM, 48 hours; control group 36.19 ± 5.15. The procedure: (§1) In the scratch assay, the cell migration rate was negatively correlated with the inhibitory effect of the drug component on tumor cell migration ability. The cell migration inhibition experiment was described as follows: tumor cells were cultured in vitro, cells in logarithmic growth phase were collected and seeded evenly in a 24-well plate at a density of 1-2×10^5 cells/well; the cells were cultured in a cell incubator until a monolayer was formed; a scratch tool was used to make a “-” (straight) scratch on the monolayer of cells; the cells were washed 1-3 times with PBS, and a medium (with 2% fetal bovine serum) containing specific test components was added to the culture. Experimental grouping: PBS control group; polypeptide or derivative thereof treatment group (N1-N54), 10 μM. Three independent parallel wells were set up in each group, and the cells were cultured continuously in a cell incubator for 48 hours. […] At least 3 representative images for each well were taken. ImageJ software was used to count the migration distance of the cells, and the cell migration rate was calculated as: cell migration rate (%)=(width of original scratch−width of current scratch)/width of original scratch×100.
This example was a scratch assay to evaluate the inhibitory effect of the polypeptide or derivative thereof (N1-N54) on the migration ability of human breast cancer cells (MDA-MB-231). The experimental method was as described in Example 2.

For assay [2], the system named is human pancreatic cancer cells (PANC-1). In words: transwell invasion assay, PANC-1 cells. The format is cell-based. The conditions noted are these: PANC-1 transwell invasion, 10 μM, 24 hours; control group 727 ± 68. An excerpt:
The Transwell chamber system was used in the transwell cell invasion experiment. The chamber has an upper layer and a lower layer, which are separated by an artificial semipermeable membrane in the middle. The upper surface of the semipermeable membrane is coated with a layer of artificial matrigel to simulate extracellular matrix. Cells that have invaded through the matrigel and semi-permeable membrane will attach to the lower surface of the semi-permeable membrane. The invasion ability is evaluated by counting the number of cells on the lower surface of the semi-permeable membrane. The number of cells that have invaded is negatively correlated with the inhibitory effect of the drug on the invasion ability of the tumor cells. Transwell invasion assay was performed as follows: tumor cells were cultured in vitro, cells in logarithmic growth phase were collected, and cell suspension was prepared with fresh serum-free medium at a density of 2-3×10^5 cells/mL. Cells were inoculated, 100 μL/well cell suspension (serum-free medium) in the upper chamber and 600 μL/well complete culture medium in the lower chamber. After incubated in 37° C., 5% CO2 incubator for 4-5 hours, serum-free medium (100 μL/well) was added to the control group, and serum-free medium containing polypeptide or derivative thereof (N1-N54) was added to the upper chamber of the treatment group (100 μL/well), the final concentration of the peptide or derivative thereof in the upper chamber was 10 μM. The cells were incubated continuously for 24 hours, and then fixed with methanol and stained with crystal violet. Images were taken under a microscope and the number of invaded cells was counted with ImageJ.
This example was the transwell cell invasion experiment to evaluate the inhibitory effect of the polypeptide or derivative thereof (N1-N54) on the invasion ability of human pancreatic cancer cells (PANC-1). The experimental method was as described in Example 4.

In assay [3] the test system is human lung cancer cells (A549) subcutaneous xenograft. Nature of the assay: lung cancer subcutaneous xenograft animal model, intravenous injection. The conditions noted are these: intravenous 60 mg/kg once every other day, 20 days; for Weight of tumor (g) (mean ± SD): control 2.53 ± 0.17; for Volume of tumor (mm^3) (mean ± SD): control 3373.26 ± 581.44. The format is in vivo, mice (BALB/c-nu/nu). The procedure: Experimental animals: 4-6 weeks old female immunodeficiency mice (BALB/c-nu/nu, Beijing Vital River Laboratory Animal Technology Co., Ltd.).
Subcutaneous xenograft animal model. The number of cells inoculated subcutaneously vin mice was about 2×10^6/200 μL. When the volume of the subcutaneous tumor was greater than 100 mm^3, the mice were randomly divided into groups and subjected to treatment. When the mass volume of the tumors in model control group reached 2000 mm^3 or the animal dies, the treatment ended. The animals were dissected, the tumors were taken out, and the weight and volume of the tumors were measured. During the period of the entire experiment, the mice were observed and the body weight was measured every other day.
The method used in the efficacy test on the lung cancer subcutaneous xenograft animal model was as described in Example 5. The lung cancer cells were the human lung cancer cells (A549), and the route of administration was intravenous injection. This example involved a total of 3 experiments to evaluate N1-N15, N16-N30, and N31-N54 respectively. The experimental procedure, route of administration, dosage and frequency of administration, and detection method were all consistent in the three experiments. The experimental groups were model control group and polypeptide or derivative thereof treatment groups (N1-N15, N16-N30, or N31-N54). The drug dosage of the N1-N54 treatment groups was 60 mg/kg, and the treatment time was 20 days.

Assay [4] deals with human liver cancer cells (HepG2). Nature of the assay: scratch assay, migration of HepG2 cells. The assay is classed as cell-based. The conditions noted are these: HepG2, 10 μM, 48 hours; control group 71.01 ± 6.63. As to the method: as §1
This example was a scratch assay to evaluate the inhibitory effect of the polypeptide or derivative thereof (N1-N54) on the migration ability of human liver cancer cells (HepG2). The experimental method was as described in Example 2.

Assay [5] deals with human breast cancer cells (MCF-7). Nature of the assay: scratch assay, migration of MCF-7 cells. The assay is classed as cell-based. The conditions noted are these: MCF-7, 10 μM, 48 hours; control group 30.97 ± 1.79. The procedure: as §1
This example was a scratch assay to evaluate the inhibitory effect of the polypeptide or derivative thereof (N1-N54) on the migration ability of human breast cancer cells (MCF-7). The experimental method was as described in Example 2.

Assay [6] relates to human pancreatic cancer cells (PANC-1). Nature of the assay: scratch assay, migration of PANC-1 cells. The assay is classed as cell-based. As to conditions: PANC-1, 10 μM, 48 hours; control group 66.65 ± 3.37. As to the method: as §1
This example was a scratch assay to evaluate the inhibitory effect of the polypeptide or derivative thereof (N1-N54) on the migration ability of human pancreatic cancer cells (PANC-1). The experimental method was as described in Example 2.

In assay [7] the test system is human breast cancer cells (MDA-MB-453). Nature of the assay: scratch assay, migration of MDA-MB-453 cells. The assay is classed as cell-based. As to conditions: MDA-MB-453, 10 μM, 48 hours; control group 32.42 ± 2.04. The procedure:
as §1
This example was a scratch assay to evaluate the inhibitory effect of the polypeptide or derivative thereof (N1-N54) on the migration ability of human breast cancer cells (MDA-MB-453). The experimental method was as described in Example 2.

In assay [8] the test system is human prostate cancer cells (22RV1). Nature of the assay: scratch assay, migration of 22RV1 cells. The format is cell-based. As to conditions: 22RV1, 10 μM, 48 hours; control group 25.41 ± 5.01. As to the method:
as §1
This example was a scratch assay to evaluate the inhibitory effect of the polypeptide or derivative thereof (N1-N54) on the migration ability of human prostate cancer cells (22RV1). The experimental method was as described in Example 2.

Ends that are not written are not given here. PEG = not defined here

Regarding “N8: SEQ ID NO: 1 with deletion of positions 15-18 and positions 3, 4 and 11 (YRFLAKENTQD)”, the “Migration rate (%) (mean ± SD, P)” value in assay [1] was 19.02 ± 3.53,* %; in assay [4], 18.65 ± 6.88,*** %; in assay [5], 11.56 ± 2.35,** %; in assay [6], 35.11 ± 5.96,** %; in assay [7], 9.44 ± 2.09,*** %; in assay [8], 8.75 ± 1.98,** %. Further, the “Number of cells (mean ± SD, P), invaded cells” value (shortened to “Number of cells (mean ± SD, P)”) in assay [2] was 65 ± 16,****. In addition, the “Weight of tumor (g) (mean ± SD)” value in assay [3] was determined as 1.02 ± 0.21 g. The “Volume of tumor (mm^3) (mean ± SD)” value in assay [3] came out at 1359.06 ± 275.17 mm^3.
For the substance “N9: SEQ ID NO: 1 with deletion of positions 15-18 and PEG modification at the amino terminal ({PEG}-YRVRFLAKENVTQD; reading uncertain)”, the “Migration rate (%) (mean ± SD, P)” value is listed as 15.96 ± 3.92,* % in assay [1]; 35.11 ± 5.16,** % in assay [4]; 5.28 ± 2.11,*** % in assay [5]; 29.12 ± 5.84,*** % in assay [6]; 7.19 ± 2.38,*** % in assay [7]; 14.84 ± 2.96,* % in assay [8]. In addition, in assay [2], the “Number of cells (mean ± SD, P)” value is 93 ± 6,****. Besides, the “Weight of tumor (g) (mean ± SD)” value in assay [3] turned out to be 0.82 ± 0.29 g. The “Volume of tumor (mm^3) (mean ± SD)” value in assay [3] was determined as 1241.9 ± 388.92 mm^3.
Regarding “N10: SEQ ID NO: 1 with deletion of positions 15-18 and 1-3 and PEG modification at the carboxyl terminal (RFLAKENVTQD-{PEG}; reading uncertain)”, the “Migration rate (%) (mean ± SD, P)” value is 13.6 ± 4.62,** % in assay [1]; 39.45 ± 5.00,** % in assay [4]; 9.55 ± 2.72,** % in assay [5]; 32.80 ± 5.89,** % in assay [6]; 6.9 ± 1.65,*** % in assay [7]; 13.39 ± 2.3,* % in assay [8]. Besides, the “Number of cells (mean ± SD, P)” value in assay [2] is recorded as 159 ± 12,****. The “Weight of tumor (g) (mean ± SD)” value in assay [3] is recorded as 0.86 ± 0.17 g. Further, the “Volume of tumor (mm^3) (mean ± SD)” value in assay [3] came to 1211.62 ± 670.09 mm^3.
Consider “N11: SEQ ID NO: 1 with deletion of positions 15-18 and 1-3 and PEG modification at the amino terminal ({PEG}-RFLAKENVTQD; reading uncertain)”, for which the “Migration rate (%) (mean ± SD, P)” value in assay [1] was 10.68 ± 5.72,** %; in assay [4], 53.36 ± 5.49,* %; in assay [5], 9.34 ± 3.74,** %; in assay [6], 28.37 ± 7.57,** %; in assay [7] it was 4.49 ± 1.6,*** %; in assay [8], 9.43 ± 2.23,** %. The “Number of cells (mean ± SD, P)” value in assay [2] is listed as 66 ± 14,****. For the same substance, in assay [3], the “Weight of tumor (g) (mean ± SD)” value is 1.3 ± 0.23 g. Also, the “Volume of tumor (mm^3) (mean ± SD)” value in assay [3] came to 1419.28 ± 615.42 mm^3.
As to “N12: SEQ ID NO: 1 with deletion of position 18 and positions 1-2 (VRFLAKENVTQDAED)”, the “Migration rate (%) (mean ± SD, P)” value in assay [1] was 15.41 ± 3.55,** %; in assay [4] it was 48.01 ± 5.38,** %; in assay [5], 11.65 ± 3.32,** %; in assay [6], 23.26 ± 6.90,** %; in assay [7] it was 6.32 ± 1.78,*** %; in assay [8], 6.61 ± 2.83,** %. Further, in assay [2], the “Number of cells (mean ± SD, P)” value is on record as 180 ± 17,****. Also, the “Weight of tumor (g) (mean ± SD)” value in assay [3] is 0.85 ± 0.19 g. For the same substance, the “Volume of tumor (mm^3) (mean ± SD)” value in assay [3] is 1275.34 ± 221.5 mm^3.
As to “N13: SEQ ID NO: 1 with deletion of positions 15-18 and positions 1-5 (LAKENVTQD)”, the “Migration rate (%) (mean ± SD, P)” value is 7.45 ± 2.6,*** % in assay [1]; 45.91 ± 4.70,** % in assay [4]; 13.79 ± 2.05,** % in assay [5]; 18.28 ± 8.38,*** % in assay [6]; 9.28 ± 2.43,*** % in assay [7]; 9.77 ± 3.66,* % in assay [8]. Besides, the “Number of cells (mean ± SD, P)” value in assay [2] was 161 ± 19,****. The “Weight of tumor (g) (mean ± SD)” value in assay [3] was found to be 0.8 ± 0.17 g. Moreover, the “Volume of tumor (mm^3) (mean ± SD)” value in assay [3] turned out to be 1320.14 ± 147.22 mm^3.
For the substance “N14: SEQ ID NO: 1 with deletion of positions 1-5 and addition of one amino acid at the carboxyl terminal (LAKENVTQDAEDNC)”, the “Migration rate (%) (mean ± SD, P)” value in assay [1] is on record as 14.59 ± 5.36,* %; in assay [4] it was 48.61 ± 4.63,** %; in assay [5] it was 7.05 ± 1.40,*** %; in assay [6], 26.63 ± 6.67,*** %; in assay [7], 7.58 ± 2.34,*** %; in assay [8], 14.06 ± 2.37,* %. Also, the “Number of cells (mean ± SD, P)” value in assay [2] is recorded as 157 ± 37,****. Besides, in assay [3], the “Weight of tumor (g) (mean ± SD)” value is recorded as 0.7 ± 0.26 g. Moreover, the “Volume of tumor (mm^3) (mean ± SD)” value in assay [3] came to 1431.61 ± 215.71 mm^3.
